Results taken from ChEMBL document CHEMBL3400090, “Benzofused hydroxamic acids: useful fragments for the preparation of histone deacetylase inhibitors. Part 2: 7-fluorobenzothiophenes and benzofurans” (Bioorg Med Chem Lett, 2015).

Assays:
[1] = Antiproliferative activity against human HCT116 cells after 5 days by Alamar Blue assay; type: functional, cell-based; conditions: HCT-116, 120 h
[2] = molecular target: T1, Histone deacetylase (Rattus norvegicus) (UniProt Q6P6W3+Q99P99+Q99P96+Q4QQW4+Q99P97+Q5RJZ2+B1WBY8); conditions: at 0.01 µM
Description: Inhibition of isolated rat liver HDAC using substrate containing acetylated lysine side chain assessed as release of fluorophore at 0.01 uM by Fluor de Lys assay

[3] = molecular target: T1, Histone deacetylase (Rattus norvegicus); conditions: at 0.1 µM
Description: Inhibition of isolated rat liver HDAC using substrate containing acetylated lysine side chain assessed as release of fluorophore at 0.1 uM by Fluor de Lys assay

SMILES | IC50 [1] [µM] | inhibition [2] [%] | inhibition [3] [%]
COc1ccc(CC(=O)Nc2ccc3oc(C(=O)NO)cc3c2)cc1 | 2.7 | < 20 | 42
COc1cccc(CC(=O)Nc2ccc3oc(C(=O)NO)cc3c2)c1 |  | < 20 | 32
O=C(NCc1ccc2cc(C(=O)NO)sc2c1F)c1ccccc1 | 0.98 | 24 | 64
O=C(NCc1ccc2cc(C(=O)NO)oc2c1)c1ccco1 |  | < 20 | 27
COCc1ccc(C(=O)NCc2ccc3cc(C(=O)NO)sc3c2F)o1 | 0.31 | 23 | 67
O=C(Cc1ccccc1)Nc1ccc2oc(C(=O)NO)cc2c1 | 1.7 | < 20 | 41
CN(C)CCCC(=O)Nc1ccc2oc(C(=O)NO)cc2c1 |  | < 20 | 26
O=C(NO)c1cc2ccc(CN(CCO)Cc3ccccc3)c(F)c2s1 | 0.8 | < 20 | 48
COc1ccccc1C(=O)NCc1ccc2cc(C(=O)NO)sc2c1F | 1.2 | < 20 | 56
O=C(NCc1ccc2oc(C(=O)NO)cc2c1)c1ccccc1 | 0.69 | < 20 | 49
Cc1cc(C(=O)NCc2ccc3cc(C(=O)NO)sc3c2F)oc1C | 0.47 | 21 | 59
Cc1ncoc1C(=O)NCc1ccc2cc(C(=O)NO)sc2c1F | 0.21 | 20 | 61
O=C(NO)c1cc2ccc(CN3CCc4ccccc4C3)c(F)c2s1 | 3 | < 20 | 45
O=C(NCc1ccc2oc(C(=O)NO)cc2c1)c1ccco1 | 0.86 | < 20 | 45
O=C(NCc1ccc2cc(C(=O)NO)sc2c1F)c1ccc[nH]1 | 0.3 | 45 | 76
CN(C)c1ccc(C(=O)NCc2ccc3cc(C(=O)NO)sc3c2F)cc1 | 0.06 | < 20 | 61
COc1ccc(C(=O)NCc2ccc3cc(C(=O)NO)sc3c2F)cc1 | 0.05 | 39 | 78
CN(C)c1ccc(CC(=O)Nc2ccc3oc(C(=O)NO)cc3c2)cc1 |  | < 20 | 34
O=C(NCc1ccc2cc(C(=O)NO)sc2c1F)c1ccco1 | 0.09 | 39 | 78
Cc1ccc(C(=O)NCc2ccc3cc(C(=O)NO)sc3c2F)s1 | 0.12 | 41 | 80
